Test results taken from US20260226076A1, “FUSED MULTICYCLIC COMPOUNDS AND THEIR USE AS PARP1 INHIBITORS” (LAEKNA THERAPEUTICS SHANGHAI CO., LTD., priority 2022, published 2026).
Like-named read-outs stand apart in the source and are kept apart here.

How the values were obtained:
[1] = target: PARP1 (Homo sapiens, UniProt P09874); test: PARP1-DNA enzymatic trapping assay; type: biochemical; details: 10 nM PARP1, 5 nM DNA probe, 2 mM NAD+, fluorescence polarization read at 30 minutes
Experimental: Enzymatic trapping assay is to measure the dissociation process of PARP1 from fluorescein-labeled DNA during the enzymatic activity. Assay was conducted at a total 10 μL of reaction volume, including 10 nM PARP1 and 5 nM DNA probe in the binding buffer (50 mM Tris-HCl pH 8.0, 50 mM NaCl, 1 mM MgCl2, 0.1 mM EDTA, and 0.01% IGEPAL), and was commenced by adding a final concentration of 2 mM NAD+ substrate.
PARP1 Poly-ADP ribosylation (PARylation) inhibitory assay was conducted with compounds dissolved in DMSO at a starting concentration of 5 μM. Dissolved compounds were added to 384-well microplate and premixed with PARPI enzyme and DNA probe for 20 minutes incubation. Enzymatic reactions were started by adding NAD+ to mixture, and each well was read at 30 minutes by microplate reader (VICTOR Nivo®, PerkinElmer) to detect the fluorescence polarization signal at 480 nm excitation/530 nm dual emission.
All measured IC50 values were calculated using four parameters dose-response inhibition model in GraphPad Prism 8.0.2 (La Jolla, California, USA, www.graphpad.com).

[2] = target: PARP2 (Homo sapiens, UniProt Q9UGN5); test: PARP2-FL displacement assay; type: binding; details: 20 nM PARP2, 3 nM PARPi-FL, 4 hours incubation, fluorescence polarization
Experimental: A potent PARP inhibitor (PARPi-FL, Cat No. 6461, Tocris Bioscience) conjugated to BDY FL fluorophore was adopted to characterize the activity of PARP2 by measuring the displacement of binding of PARPi-FL to PARP2. Compounds to be tested were prepared at a concentration of 1-10 mM, and made a 3-fold serial dilution by 100% DMSO in a polypropylene plate (Bio-One small volume microplate, black, Cat No. 784076, Greiner). 100 nL of test compounds were dispensed into a 384-well polypropylene microplate and added 10 μL of reaction solution including premixed 20 nM PARP2 and 3 nM PARPi-FL. After 4 hours of incubation at room temperature, the fluorescence polarization signal at 480/30 nm excitation and 530/30 nm dual emission was measured by VICTOR Nivo® multimode plate reader (PerkinElmer). All of the measured IC50 values were calculated using four parameters dose-response inhibition model in GraphPad Prism 8.0.2 (La Jolla, California, USA, www.graphpad.com).

[3] = test system: MDA-MB-436 cells; test: Cell proliferation assay (MDA-MB-436); type: cell-based; details: Homo sapiens, MDA-MB-436, 168 h, at least 7 days, Cell-Titer Glo, read-out: MDA-MB-436 anti-proliferation assay
Experimental: (§1) For PARPi sensitivity, exponentially growing MDA-MB-436 and DLD1 BRCA2^−/− cells were seed in 96 or 384-well plates at very low density with the goal of not splitting for at least 7 days (typically 0.3k-1.2k cells/well). Cells were plated on […] and treated with DMSO or increasing concentrations of PARP1 inhibitors on Day 0. At the end of the experiment, cell viability was estimated using Cell-Titer Glo (Promega).

[4] = test system: DLD1 BRCA2−/− cells; test: Cell proliferation assay (DLD1 BRCA2−/−); type: cell-based; details: Homo sapiens, DLD-1, 168 h, at least 7 days, Cell-Titer Glo, read-out: DLD1 BRCA2−/− anti-proliferation assay
Experimental: as §1

[5] = Tumor/plasma ratio study in MDA-MB-436 tumor-bearing mouse; type: in vivo; details: female NOD-SCID mice with MDA-MB-436 tumors, dosed 28 days; for concentration at 24 h: LC-MS/MS; for Kp at 24 h: tumor/plasma, 24 hours after the last dose
Experimental: 1×10^7 MDA-MB-436 cells were implanted subcutaneously onto the flank of female NOD-SCID mice (aged 6-8 weeks weighing approximately 18-22 g). When tumors reached approximately 150-180 mm3, the mice were randomly assigned to treatment groups. The mice were continuously dosed with the Compounds for 28 days. On day 29, blood (50 μL) and tumor tissue samples were collected at 24 hours after the last dose. The collected blood samples were then centrifuged at 4600 rpm for 5 minutes at 4° C. to obtain plasma. To determine compound levels in plasma samples, each plasma sample was prepared using an appropriate dilution factor and compared against an 11-point standard calibration curve (1-5,000 ng/mL) prepared in DMSO and spiked into blank plasma. Acetonitrile (200 μL) was added with internal standard into 20 μL plasma samples, followed by centrifugation at 5,500 rpm for 10 minutes. Supernatant (150 μL) was then diluted in water (150 μL) and analyzed via LC-MS/MS. Tumor tissue samples were weighed, and then homogenized with 80% methanol at a ratio of 1:5 or 1:10 (tumor weight in grams to methanol volume in milliliters). Acetonitrile (300 μL) was added with internal standard into 30 μL tumor homogenates sample. The samples were vortexed for 30 s and then centrifuged at 5,500 rpm for 10 min at 4° C. The supernatant (150 μL) was transferred to 96-well plate and diluted with water (150 μL) and analyzed via LC-MS/MS. If a sample concentration in initial assay was not covered in the range of a given standard curve, proper dilution and concentration procedures were used in repeated testing.

[6] = tumor tissue 24 hours after the last dose, read-out: Tumor
[7] = plasma, sample 24 hours after the last dose, read-out: Plasma

PARP2, sequence (Q9UGN5 whole entry): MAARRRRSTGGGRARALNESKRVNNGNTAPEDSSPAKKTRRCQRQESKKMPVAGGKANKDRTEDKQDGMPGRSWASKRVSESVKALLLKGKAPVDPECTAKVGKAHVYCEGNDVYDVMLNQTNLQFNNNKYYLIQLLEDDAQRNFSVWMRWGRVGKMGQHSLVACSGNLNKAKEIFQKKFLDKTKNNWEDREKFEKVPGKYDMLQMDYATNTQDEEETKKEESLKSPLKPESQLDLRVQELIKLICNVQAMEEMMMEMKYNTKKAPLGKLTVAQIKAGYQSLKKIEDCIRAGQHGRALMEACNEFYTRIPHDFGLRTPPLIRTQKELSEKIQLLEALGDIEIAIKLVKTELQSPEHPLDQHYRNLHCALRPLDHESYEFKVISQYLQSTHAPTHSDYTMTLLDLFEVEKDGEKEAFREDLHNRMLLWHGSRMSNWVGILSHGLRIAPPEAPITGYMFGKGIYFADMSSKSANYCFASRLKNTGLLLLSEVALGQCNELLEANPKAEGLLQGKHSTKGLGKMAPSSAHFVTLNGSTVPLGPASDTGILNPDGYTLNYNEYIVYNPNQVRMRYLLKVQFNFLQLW
PARP1, sequence (P09874 whole entry): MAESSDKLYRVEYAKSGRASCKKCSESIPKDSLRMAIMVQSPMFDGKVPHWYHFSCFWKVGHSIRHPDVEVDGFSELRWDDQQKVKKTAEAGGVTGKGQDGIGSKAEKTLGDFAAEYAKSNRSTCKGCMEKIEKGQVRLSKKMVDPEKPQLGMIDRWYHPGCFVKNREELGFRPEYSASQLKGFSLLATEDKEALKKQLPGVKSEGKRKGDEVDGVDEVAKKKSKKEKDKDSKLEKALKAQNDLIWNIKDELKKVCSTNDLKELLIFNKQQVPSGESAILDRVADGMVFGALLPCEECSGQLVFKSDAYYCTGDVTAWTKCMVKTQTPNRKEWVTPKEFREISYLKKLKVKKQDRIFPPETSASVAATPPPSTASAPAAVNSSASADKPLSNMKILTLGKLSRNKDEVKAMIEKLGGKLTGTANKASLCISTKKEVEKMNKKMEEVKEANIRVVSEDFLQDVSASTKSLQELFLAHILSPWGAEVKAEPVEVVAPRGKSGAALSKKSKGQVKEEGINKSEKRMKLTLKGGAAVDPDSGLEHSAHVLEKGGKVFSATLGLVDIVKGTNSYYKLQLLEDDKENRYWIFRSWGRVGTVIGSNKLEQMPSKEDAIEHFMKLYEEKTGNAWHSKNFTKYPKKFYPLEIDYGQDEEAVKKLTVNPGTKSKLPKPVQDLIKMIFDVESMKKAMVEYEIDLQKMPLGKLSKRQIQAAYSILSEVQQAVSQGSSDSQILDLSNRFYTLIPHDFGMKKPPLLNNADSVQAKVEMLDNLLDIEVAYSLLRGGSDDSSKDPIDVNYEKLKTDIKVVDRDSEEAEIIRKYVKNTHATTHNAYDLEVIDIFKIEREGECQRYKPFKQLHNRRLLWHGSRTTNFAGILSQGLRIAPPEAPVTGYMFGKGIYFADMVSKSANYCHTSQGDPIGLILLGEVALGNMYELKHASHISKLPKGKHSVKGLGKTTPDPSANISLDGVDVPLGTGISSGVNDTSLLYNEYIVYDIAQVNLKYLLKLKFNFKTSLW

IC50 [1] [nM] | IC50 [2] [nM] | IC50 [3] [nM] | IC50 [4] [nM] | concentration at 24 h [5, 6] [ng/g] | concentration at 24 h [5, 7] [ng/mL] | Kp at 24 h [5] | SMILES
5.73 | 1200 | 0.66 | 0.62 | 244 | 22 | 11 | O=C(NC1COC1)c1ccc(N2C[C@H]3CN(Cc4ccc5c6c(c(=O)[nH]c5c4)CCC6)C[C@@H]3C2)c(F)n1 [Compound 87]
9.28 | 4050 | 0.62 | 0.77 |  |  |  | CCc1cc2cnc(CN3C[C@@H]4CN(c5ccc(C(=O)NC)nc5F)C[C@H]4C3)cc2[nH]c1=O [Compound 40]
7.41 | 3310 | 0.44 | 1.44 | 121 | 4.3 | 28 | O=C(NC1COC1)c1ccc(N2C[C@H]3CN(Cc4cnc5c6c(c(=O)[nH]c5c4)CCC6)C[C@@H]3C2)c(F)n1 [Compound 52]
4.2 | 614 | 0.39 | 0.7 |  |  |  | CO[C@H]1C[C@@H](NC(=O)c2ccc(N3C[C@H]4CN(Cc5ccc6c7c(c(=O)[nH]c6c5)COCC7)C[C@@H]4C3)c(F)n2)C1 [Compound 70]
9.52 | 832 | 0.35 | 2.11 |  |  |  | O=C(NC1CC1)c1ccc(N2C[C@@H]3CN(Cc4cnc5c6c(c(=O)[nH]c5c4)COCC6)C[C@H]3C2)c(F)n1 (stereo in doubt) [Compound 72]
8.01 | 2900 | 0.24 | 0.55 |  |  |  | O=C(NC1COC1)c1ccc(N2C[C@H]3CN(Cc4cnc5c(c4)[nH]c(=O)c4cccn45)C[C@@H]3C2)c(F)n1 [Compound 64]

The next lines start with the compound.

SMILES | IC50 [1] [nM] | IC50 [2] [nM] | IC50 [3] [nM] | IC50 [4] [nM] | concentration at 24 h [5, 6] [ng/g] | concentration at 24 h [5, 7] [ng/mL] | Kp at 24 h [5]
CCc1cc2ncc(CN3CCN(c4ccc(C(=O)NC)nc4)CC3)cc2[nH]c1=O [AZD5305, reference compound] |  |  |  |  | 249 | 584 | 0.4
CCNC(=O)c1ccc(N2C[C@H]3CN(Cc4cnc5c6c(c(=O)[nH]c5c4)COCC6)C[C@@H]3C2)c(F)n1 [Compound 76] | 5.3 | 574 | 0.5 | 0.7 |  |  | 
O=C(N[C@H]1CCOC1)c1ccc(N2C[C@H]3CN(Cc4ccc5c6c(c(=O)[nH]c5c4)COCC6)C[C@@H]3C2)c(F)n1 [Compound 85] | 8.15 | 811 | 1.05 | 1.1 |  |  | 
CNC(=O)c1ccc(N2C[C@H]3CN(Cc4ccc5c6c(c(=O)[nH]c5c4)COCC6)C[C@@H]3C2)cn1 [Compound 65] | 6.22 | 334 | 0.36 | 0.63 |  |  | 
CO[C@H]1C[C@@H](NC(=O)c2ccc(N3C[C@H]4CN(Cc5cnc6c7c(c(=O)[nH]c6c5)COCC7)C[C@@H]4C3)c(F)n2)C1 [Compound 73] | 8.29 | 1040 | 0.27 | 1.09 | 206 | 3.2 | 64
CNC(=O)c1ccc(N2C[C@@H]3CN(Cc4cnc5c(c4)[nH]c(=O)c4cccn45)C[C@H]3C2)cn1 (racemic) [Compound 4] | 7.93 | 925 | 0.9 | 0.58 |  |  | 
CCc1cc2ncc(CN3C[C@@H]4CN(c5ccc(C(=O)NC)nc5F)C[C@H]4C3)cc2[nH]c1=O [Compound 27] | 7.52 | 1100 | 0.23 | 0.22 |  |  | 
CNC(=O)c1ccc(N2C[C@H]3CN(Cc4ccc5c6c(c(=O)[nH]c5c4)COC6)C[C@@H]3C2)c(F)n1 [Compound 60] | 8.17 | 2470 | 1.04 | 1.6 |  |  | 
